The conditions of data set [1]: cited from earlier work.
Data set [2] has as its system bone marrow derived dendritic cells (DC). Description: DC maturation in response to LPS with soluble Tofa (flow cytometry, ELISA). It counts as cell-based, mouse. The method, then:
FIGS. 2A-2B. Jak inhibition impacts APC maturation. 2A, Representative graphs of surface expression of maturation markers on DC left untreated or exposed overnight to LPS+/−Tofa. 2B, Supernatants from DC cultures were tested for accumulation of the indicated cytokines by ELISA. n=3.
The latter two have been implicated in T1D development and inhibition of their accumulation would be a valuable effect.
Background: A flow cytometer gives signals particle by particle.

The next data set deals with Treg cells. The data set can be described thus: T cell CFSE-Proliferation-Assay of Treg suppressive activity. It is filed as cell-based. Conditions: Treg at 2:1 or 4:1 T cell to Treg ratio; Tofa at 0.5 or 1 μM. The method, then:
FIG. 3. […] Results of CFSE-Proliferation-Assay conducted with the addition of Treg cells (at either 2:1 or 4:1 T cell to Treg ratio) and Tofa (at 0.5 or 1 μM). Values are normalized to the extent of proliferation measured with no Treg.

The next data set has as its system NOD mice. The data set can be described thus: Diabetes onset in NOD mice after oral gavage. Conditions: amount identical to that used in Tofa-NLC; ongoing group. It counts as in vivo, mouse. An excerpt:
FIG. 13. Oral administration of Tofa-NLC delays diabetes onset. We tested the effect of Tofa-NLC administration via oral gavage to two treatment groups: 1) 3 week-old NOD mice (corresponding to Pre-stage 1 in human patients) and 2) 10 week-old NOD mice (corresponding to advanced Stage 1 in human patients).
All these characteristics indicate that LNp would be a most valuable delivery system for the tissue selective actuation of a combination immunotherapy. We then began to define the effects of a transient administration of Tofa-NLC on diabetes development in NOD mice. […] We then tested the effect of Tofa-NLC administration via oral gavage to two treatment groups: 1) 3 week-old NOD mice (corresponding to Pre-stage 1 in human patients) and 2) 10 week-old NOD mice (corresponding to advanced Stage 1 in human patients). […] In particular, oral administration to 3-week-old NOD mice prevented onset of disease in 70% of the animals for more than 40 weeks.

Filgotinib: in data set [1], the “Solubility in Dimethyl Sulfoxide” value is 85 mg/mL.

Regarding Tofacitinib, the “release of inflammatory cytokines IL-6, IL-1, TNF-α” value in data set [2] (DC culture supernatants, ELISA) is on record as “reduction in release of the prototypical inflammatory cytokines”. Also, in data set [2] (DC exposed to LPS +/- Tofa), the “up-regulation of CD80 and CD86 costimulatory molecules” value was “significant inhibition of the up-regulation of CD80 and CD86 costimulatory molecules”; the “up-regulation of MHC-II molecules” value is “did not prevent the up-regulation of MHC-II molecules”. The “suppressive activity of Treg” value in the data set with Treg cells is given as “preservation of regulatory activity”. Moreover, the “therapeutic effect on diabetes development” value in the data set on NOD mice is reported as “inferior (if not absent) therapeutic effect”.

Values taken from patent publication US20220339116A1, “LIPID NANOPARTICLES AS ORAL VEHICLES OF IMMUNOTHERAPY” (The Johns Hopkins University, priority 2019, published 2022).
